Data: ChEMBL document CHEMBL4393720, “Design, synthesis and biological evaluation of bromophenol-thiazolylhydrazone hybrids inhibiting the interaction of translation initiation factors eIF4E/eIF4G as multifunctional agents for cancer treatment” (Eur J Med Chem, 2019)

Legend:
U-87 MG = experiment: Antiproliferative activity against human U87MG cells assessed as inhibition of cell growth incubated for 48 hrs by MTT assay; assay type: functional, cell-based, U-87MG ATCC
HepG2 = experiment: Antiproliferative activity against human HepG2 cells assessed as inhibition of cell growth incubated for 48 hrs by MTT assay; assay type: functional, cell-based; settings: HepG2, 48 h
HUVEC = experiment: Antiproliferative activity against human HUVEC cells assessed as inhibition of cell growth incubated for 48 hrs by MTT assay; assay type: cell-based
Caco-2 = experiment: Antiproliferative activity against human Caco2 cells assessed as inhibition of cell growth incubated for 48 hrs by MTT assay; assay type: functional, cell-based; settings: Caco-2, 48 h
A549 = experiment: Antiproliferative activity against human A549 cells assessed as inhibition of cell growth incubated for 48 hrs by MTT assay; assay type: functional, cell-based; settings: A549, 48 h

## COc1cc(/C=N/Nc2nc(-c3cccc(Br)c3)cs2)cc(Br)c1OC
U-87 MG
  IC50: 86.3 µM
HepG2
  IC50: 66.2 µM
HUVEC
  IC50: > 100 µM
Caco-2
  IC50: 43.4 µM
A549
  IC50: 56 µM

## COc1cc(/C=N/Nc2nc(-c3ccc(F)c(F)c3)cs2)c(Br)c(Br)c1OC
U-87 MG
  IC50: 19.6 µM
HepG2
  IC50: 49.7 µM
HUVEC
  IC50: 54.7 µM
Caco-2
  IC50: 22.8 µM
A549
  IC50: 8.38 µM

## Fc1ccc(/C=N/Nc2nc(-c3ccc(Br)cc3)cs2)cc1F
U-87 MG
  IC50: > 100 µM
HepG2
  IC50: > 100 µM
HUVEC
  IC50: > 100 µM
Caco-2
  IC50: 43.9 µM
A549
  IC50: > 100 µM

## COc1cc(/C=N/Nc2nc(-c3cccc(Br)c3)cs2)c(Br)c(Br)c1OC
U-87 MG
  IC50: 27.6 µM
HepG2
  IC50: > 100 µM
HUVEC
  IC50: > 100 µM
Caco-2
  IC50: > 100 µM
A549
  IC50: 37 µM

## COc1cc(/C=N/Nc2nc(-c3ccccc3)cs2)cc(Br)c1OC
U-87 MG
  IC50: 74.1 µM
HepG2
  IC50: 68.3 µM
HUVEC
  IC50: > 100 µM
Caco-2
  IC50: 64.2 µM
A549
  IC50: 40 µM

## COc1cc(/C=N/Nc2nc(-c3ccc(Br)cc3)cs2)c(Br)c(Br)c1OC
U-87 MG
  IC50: > 100 µM
HepG2
  IC50: > 100 µM
HUVEC
  IC50: > 100 µM
Caco-2
  IC50: > 100 µM
A549
  IC50: 46.1 µM

## COc1ccccc1-c1csc(N/N=C/c2cc(OC)c(OC)c(Br)c2Br)n1
U-87 MG
  IC50: > 100 µM
HepG2
  IC50: > 100 µM
HUVEC
  IC50: > 100 µM
Caco-2
  IC50: > 100 µM
A549
  IC50: 85.1 µM

## Fc1ccc(/C=N/Nc2nc(-c3ccccc3)cs2)cc1F
U-87 MG
  IC50: > 100 µM
HepG2
  IC50: > 100 µM
HUVEC
  IC50: > 100 µM
Caco-2
  IC50: 20.9 µM
A549
  IC50: 91.4 µM

## Fc1ccc(/C=N/Nc2nc(-c3ccc(F)c(F)c3)cs2)cc1F
U-87 MG
  IC50: 43.9 µM
HepG2
  IC50: 26.6 µM
HUVEC
  IC50: 59.7 µM
Caco-2
  IC50: 14.2 µM
A549
  IC50: 8.49 µM

## COc1cc(/C=N/Nc2nc(-c3ccc(C(F)(F)F)cc3)cs2)cc(Br)c1OC
U-87 MG
  IC50: 41 µM
HepG2
  IC50: 31.2 µM
HUVEC
  IC50: > 100 µM
Caco-2
  IC50: 65.9 µM
A549
  IC50: 18.3 µM

## COc1cc(/C=N/Nc2nc(-c3ccccc3)cs2)c(Br)c(Br)c1OC
U-87 MG
  IC50: 20.1 µM
HepG2
  IC50: 33.6 µM
HUVEC
  IC50: > 100 µM
Caco-2
  IC50: 26.5 µM
A549
  IC50: 15.3 µM

## O=C(O)/C(Cc1ccccc1[N+](=O)[O-])=N\Nc1nc(-c2ccc(Cl)c(Cl)c2)cs1
U-87 MG
  IC50: 75 µM
HepG2
  IC50: 36.9 µM
HUVEC
  IC50: 67.5 µM
Caco-2
  IC50: 44.7 µM
A549
  IC50: 58.6 µM

## COc1cc(/C=N/Nc2nc(-c3cc(C(F)(F)F)cc(C(F)(F)F)c3)cs2)cc(Br)c1OC
U-87 MG
  IC50: > 100 µM
HepG2
  IC50: > 100 µM
HUVEC
  IC50: > 100 µM
Caco-2
  IC50: > 100 µM
A549
  IC50: 94.2 µM

## COc1cc(/C=N/Nc2nc(-c3ccc(C(F)(F)F)cc3)cs2)c(Br)c(Br)c1OC
U-87 MG
  IC50: > 100 µM
HepG2
  IC50: > 100 µM
HUVEC
  IC50: > 100 µM
Caco-2
  IC50: > 100 µM
A549
  IC50: 17.6 µM

## COc1ccccc1-c1csc(N/N=C/c2cc(Br)c(OC)c(OC)c2)n1
U-87 MG
  IC50: > 100 µM
HepG2
  IC50: 82.1 µM
HUVEC
  IC50: > 100 µM
Caco-2
  IC50: > 100 µM
A549
  IC50: 94.9 µM

## COc1ccccc1-c1csc(N/N=C/c2ccc(F)c(F)c2)n1
U-87 MG
  IC50: 40.6 µM
HepG2
  IC50: > 100 µM
HUVEC
  IC50: > 100 µM
Caco-2
  IC50: 25.2 µM
A549
  IC50: 61.3 µM

## COc1cc(/C=N/Nc2nc(-c3ccc(F)c(F)c3)cs2)cc(Br)c1OC
U-87 MG
  IC50: 26.3 µM
HepG2
  IC50: 22.4 µM
HUVEC
  IC50: > 100 µM
Caco-2
  IC50: 21.2 µM
A549
  IC50: 21.1 µM

## COc1cc(/C=N/Nc2nc(-c3ccc(Br)cc3)cs2)cc(Br)c1OC
U-87 MG
  IC50: 27.9 µM
HepG2
  IC50: 64.6 µM
HUVEC
  IC50: > 100 µM
Caco-2
  IC50: 36.2 µM
A549
  IC50: 52.3 µM

## COc1cc(/C=N/Nc2nc(-c3cc(C(F)(F)F)cc(C(F)(F)F)c3)cs2)c(Br)c(Br)c1OC
U-87 MG
  IC50: > 100 µM
HepG2
  IC50: > 100 µM
HUVEC
  IC50: > 100 µM
Caco-2
  IC50: > 100 µM
A549
  IC50: > 100 µM

## Fc1ccc(/C=N/Nc2nc(-c3cccc(Br)c3)cs2)cc1F
U-87 MG
  IC50: 39.9 µM
HepG2
  IC50: 16.7 µM
HUVEC
  IC50: > 100 µM
Caco-2
  IC50: 17.5 µM
A549
  IC50: 16.2 µM

## Fc1ccc(/C=N/Nc2nc(-c3cc(C(F)(F)F)cc(C(F)(F)F)c3)cs2)cc1F
U-87 MG
  IC50: 29.7 µM
HepG2
  IC50: 16.7 µM
HUVEC
  IC50: > 100 µM
Caco-2
  IC50: 62.8 µM
A549
  IC50: 6.23 µM
